Like-named read-outs stand apart in the source and are kept apart here.
Tested on: Albino-Ratte
Assay: Randall-Selitto test (analgesic effect, determination of synergism)
Assay type: in vivo
Settings: per os; for Steigerung der analgetischen Wirksamkeit um den Faktor: ED50 alone versus ED50 in the combination, rat; for ED50: Rattus norvegicus, po
From the text: Die erfindungsgemäße Komtination zeigt beispielsweise im Randall-Selitto-Test einen Synergismus der analgetischen Wirkung, die gegenüber der Analgesie des reinen Flupirtin (Das Fiupirt^in wird stets als Maleat, Gluconat oder Hydrochlorid untersucht.) und dem reinen 4-Acetamido-phenol überadditiv gesteigert ist.
Die Wirkung der erfindungsgemäßen Kombination geht beispielsweise aus folgenden Versuchen hervor: Diese Untersuchungen erfolgten im Randall-Selitto-Test an der Albino-Ratte. Hierbei wird sowohl die Flupirtin-Dosis (Hydrochlorid) konstant gehalten, als auch bei konstanter Dosis des 4-Acetamido-phenols die Flupirtin-. Dosis geändert und jeweils im ersten Fall die ED50 der analgetischen Wirkung des 4-Acetamido-phenols und im zweiten Fall die analgetische Hauptwirkung des Flupirtins in der Kombination bestimmt (Methode der Bestimmung des Synergismus nach Forth, Henschler und Rummel, Lehrbuch Pharmakologie und Toxikologie, Ausgabe 1980, Seite 65; Wissenschaftsverlag, Bibliographisches Institut Mannheim, Wien und Zürich).
So wird beispielsweise in dem vorstehend angegebenen Test die analgetisch wirksame ED50 des Flupirtins von 30,94 mg/kg per os auf 1,65 mg/kg und die analgetisch wirksame ED50 des 4-Acetamido-phenols (Paracetamol) von 71,47 mg/kg auf 0,6 mg/kg per os gesenkt. In diesem Test erfolgt also eine Steigerung der analgetischen Wirksamkeit des Flupirtins um den Faktor 18 und hinsichtlich der analgetischen Wirkung des Paracetamols um den Faktor 119.

Row | SMILES | Steigerung der analgetischen Wirksamkeit um den Faktor | ED50 (4-Acetamido-phenol alone, read-out: analgetisch wirksame ED50 des 4-Acetamido-phenols (Paracetamol)) | ED50 (4-Acetamido-phenol in combination with a constant dose of Flupirtin (hydrochloride), read-out: analgetisch wirksame ED50 des 4-Acetamido-phenols (Paracetamol)) | ED50 (Flupirtin (hydrochloride) in combination with a constant dose of 4-Acetamido-phenol, read-out: analgetisch wirksame ED50 des Flupirtins) | ED50 (Flupirtin alone (hydrochloride), read-out: analgetisch wirksame ED50 des Flupirtins)
1 | CC(=O)Nc1ccc(O)cc1 [4-Acetamido-phenol] | 119 | 71.5 mg/kg | 0.6 mg/kg | – | –
2 | CCOC(=O)Nc1ccc(NCc2ccc(F)cc2)nc1N [Flupirtin, 2-Amino-3-carbethoxyamino-6-(4-fluor-be-nzylamino)-pyridin] | 18 | – | – | 1.65 mg/kg | 30.9 mg/kg
